Test results taken from US8163756B2 (priority 2004, dated 2012).
Structures can show the parent of a compound that is named as a salt.

Tests used:
Format in all cases: biochemical
Abl kinase [1] = biological target: T1, Abl kinase (Homo sapiens, UniProt P00519); experiment: Abl kinase assay A2 (as A1, 1.1 nM enzyme, 2 h pre-incubation, 0.5 mM ATP)
T1 sequence (P00519 229-512): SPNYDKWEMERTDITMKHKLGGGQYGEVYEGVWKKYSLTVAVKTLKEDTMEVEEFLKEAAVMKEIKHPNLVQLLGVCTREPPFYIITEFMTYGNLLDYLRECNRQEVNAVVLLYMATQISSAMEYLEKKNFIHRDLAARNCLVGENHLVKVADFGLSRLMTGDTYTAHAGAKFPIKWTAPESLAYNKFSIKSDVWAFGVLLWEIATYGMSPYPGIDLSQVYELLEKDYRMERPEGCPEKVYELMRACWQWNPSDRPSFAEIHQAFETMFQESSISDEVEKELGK
Protocol: (§1) IC50 values were calculated from a series of percent inhibition values determined at a range of inhibitor concentrations using software routines as implemented in the GraphPad Prism software package.

Abl kinase [2] = biological target: T1, Abl kinase; experiment: Abl kinase assay A1 (pyruvate kinase/lactate dehydrogenase coupled, spectrophotometric); conditions: Method A1; read-out: Abl Data (IC50)
Protocol: as §1

KDR kinase = KDR kinase (Homo sapiens, UniProt P35968, DEL940-989/E990V); experiment: KDR kinase assay K2 (as K1, 2.1 nM enzyme, 2 h pre-incubation, 1.0 mM ATP); conditions: Method K2; read-out: KDR Data (IC50)
Chain of KDR kinase (P35968 with tags, fused parts or gaps DEL940-989/E990V): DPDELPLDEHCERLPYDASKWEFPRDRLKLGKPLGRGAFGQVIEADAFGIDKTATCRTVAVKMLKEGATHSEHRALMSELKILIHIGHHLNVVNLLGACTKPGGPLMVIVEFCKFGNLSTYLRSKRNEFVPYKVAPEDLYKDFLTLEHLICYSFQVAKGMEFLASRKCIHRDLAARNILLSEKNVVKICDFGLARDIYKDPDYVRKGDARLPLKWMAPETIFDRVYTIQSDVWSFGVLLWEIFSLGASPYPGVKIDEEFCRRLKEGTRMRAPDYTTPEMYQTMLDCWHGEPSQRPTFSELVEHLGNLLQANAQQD
Protocol: as §1

B-Raf(V599E) kinase = B-Raf(V599E) kinase (Homo sapiens, UniProt P15056, V600E); experiment: B-Raf(V599E) kinase assay B1 (construct 1, MEK1 substrate, coupled spectrophotometric)
Chain of B-Raf(V599E) kinase (P15056 with tags, fused parts or gaps V600E): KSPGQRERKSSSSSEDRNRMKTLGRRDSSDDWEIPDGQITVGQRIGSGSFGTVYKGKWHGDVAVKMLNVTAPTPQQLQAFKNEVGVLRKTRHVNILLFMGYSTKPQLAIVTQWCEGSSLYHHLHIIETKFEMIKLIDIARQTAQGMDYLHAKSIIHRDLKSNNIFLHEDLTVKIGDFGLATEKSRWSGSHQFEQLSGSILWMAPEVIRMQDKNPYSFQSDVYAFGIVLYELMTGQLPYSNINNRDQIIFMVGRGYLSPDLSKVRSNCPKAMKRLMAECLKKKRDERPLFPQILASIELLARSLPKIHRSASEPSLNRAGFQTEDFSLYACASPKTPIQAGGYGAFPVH
Protocol: The test compounds were incubated with the reaction mixtureat 30° C. for 2 h. […] The reaction rate was calculated using the […] time frame. […] IC50 values were calculated from a series of percent inhibition values determined at a range of inhibitor concentrations using software routines as implemented in the GraphPad Prism software package.

[3] = biological target: phosphorylated p-38-alpha kinase (Homo sapiens, UniProt Q16539); experiment: P-38 alpha kinase assay P1 (coupled spectrophotometric, 2 h pre-incubation); conditions: method P1 (2 h pre-incubation); read-out: P-38 Data
Chain of phosphorylated p-38-alpha kinase (Q16539 1-360 isoform Q16539-2): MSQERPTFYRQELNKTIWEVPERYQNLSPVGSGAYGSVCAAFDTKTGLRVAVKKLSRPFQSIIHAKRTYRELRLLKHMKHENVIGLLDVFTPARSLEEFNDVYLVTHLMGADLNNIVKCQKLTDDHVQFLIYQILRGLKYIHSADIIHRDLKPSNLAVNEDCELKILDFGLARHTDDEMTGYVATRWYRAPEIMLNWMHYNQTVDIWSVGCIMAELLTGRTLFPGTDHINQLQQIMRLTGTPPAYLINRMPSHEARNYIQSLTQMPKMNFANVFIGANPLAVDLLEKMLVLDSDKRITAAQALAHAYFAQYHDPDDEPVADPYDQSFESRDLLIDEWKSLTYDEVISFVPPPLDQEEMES

[4] = Method A2, read-out: Abl Data (IC50)

SMILES | IC50 (Abl kinase [1]; [4]) [nM] | IC50 (Abl kinase [2]) [nM] | IC50 (KDR kinase) [nM] | IC50 (B-Raf(V599E) kinase) [nM] | further results
CC(C)(C)c1cc(NC(=O)Nc2cccc(C#N)c2)n(-c2ccc3c(c2)CCNC3)n1 [Example 139, 1-(3-t-butyl-1-(1,2,3,4-tetrahydro-isoquinolin-6-yl)-1H-pyrazol-5-yl)-3-(3-cyanophenyl)urea] | 140 | – | – | – | –
CC(C)(C)c1cc(NC(=O)Nc2ccc(Cl)cc2)n(-c2cccc(C#N)c2)n1 [Example 7, 1-(3-t-butyl-1-(3-cyanophenyl)-1H-pyrazol-5-yl)-3-(4-chlorophenyl)urea] | – | 5200 | 870 | 8.2 | –
CC(C)(C)c1cc(NC(=O)Nc2cccc(Cl)c2Cl)n(-c2ccc3c(c2)CCN3S(C)(=O)=O)n1 [Example 108, 1-(3-t-butyl-1-(1-(methylsulfonyl)indolin-5-yl)-1H-pyrazol-5-yl)-3-(2,3-dichlorophenyl)urea] | – | 250 | 13 | 1.5 | IC50 [3]: 9 nM
CC(C)(C)c1cc(NC(=O)Nc2cc(F)cc(F)c2F)n(-c2ccc3ncccc3c2)n1 [Example 54, 1-(3-t-butyl-1-(quinolin-6-yl)-1H-pyrazol-5-yl)-3-(2,3,5-trifluorophenyl)urea] | – | 120 | 240 | 4.8 | –
CC(C)(C)c1cc(NC(=O)Nc2cc(F)c(F)c(F)c2)n(-c2cccc(C#N)c2)n1 [Example 12, 1-(3-t-butyl-1-(3-cyanophenyl)-1H-pyrazol-5-yl)-3-(3,4,5-trifluorophenyl)urea] | – | 390 | 280 | – | –
CC(C)(C)c1cc(NC(=O)Nc2cc(F)c(F)cc2F)n(-c2ccc3ncccc3c2)n1 [Example 53, 1-(3-t-butyl-1-(quinolin-6-yl)-1H-pyrazol-5-yl)-3-(2,4,5-trifluorophenyl)urea] | – | 360 | 490 | 4.5 | –
Cc1ccc(NC(=O)Nc2cc(C(C)(C)C)nn2-c2cccc(CC(=O)NCC(O)CO)c2)cc1Nc1ncccn1 (stereo not drawn) [Example 38, 1-(3-t-butyl-1-(3-(2-(2,3-dihydroxypropylamino)-2-oxoethyl)phenyl)-1H-pyrazol-5-yl)-3-(4-methyl-3-(pyrimidin-2-ylamino)phenyl)urea] | 1400 | – | – | – | –
CC(C)(C)c1cc(NC(=O)Nc2cccc(Cl)c2Cl)n(-c2ccc3c(=O)[nH]cnc3c2)n1 [Example 194, 1-(3-t-butyl-1-(4-oxo-3,4-dihydroquinazolin-7-yl)-1H-pyrazol-5-yl)-3-(2,3-dichlorophenyl)urea] | 540 | – | – | – | –
CC(C)(C)c1cc(NC(=O)Nc2cccc(Cl)c2Cl)n(-c2ccc3ncccc3c2)n1 [Example 52, 1-[3-t-butyl-1-(quinolin-6-yl)-1H-pyrazol-5-yl]-3-(2,3-dichlorophenyl)urea] | – | 140 | 63 | 1.8 | IC50 [3]: 23 nM
CC(C)(C)c1cc(NC(=O)Nc2cccc(F)c2F)n(-c2cccc(C#N)c2)n1 [Example 4, 1-[3-t-butyl-1-(3-cyan-phenyl)-1H-pyrazol-5-yl]-3-(2,3-difluorophenyl)urea] | – | 2900 | 310 | – | –
CC(C)(C)c1cc(NC(=O)Nc2ccc(Cl)cc2)n(-c2cnc3ccccc3c2)n1 [Example 56, 1-(3-t-butyl-1-(quinolin-3-yl)-1H-pyrazol-5-yl)-3-(4-chlorophenyl)urea] | – | 4800 | 3100 | – | –
Cc1ccc(NC(=O)Nc2cc(C(C)(C)C)nn2-c2ccc3nc(N4CCNCC4)ccc3c2)cc1Nc1nccc(-c2cccnc2)n1 [Example 171, 1-(3-t-butyl-1-(2-(piperazin-1-yl)quinolin-6-yl)-1H-pyrazol-5-yl)-3-(4-methyl-3-(4-(pyridin-3-yl)pyrimidin-2-ylamino)phenyl)urea] | 4 | – | – | – | –
COc1cccc(-n2nc(C(C)(C)C)cc2NC(=O)Nc2ccc(C#N)cc2)c1 [Example 16, 1-(3-t-butyl-1-(3-methoxyphenyl)-1H-pyrazol-5-yl)-3-(4-cyanophenyl)urea] | – | 5900 | 3400 | – | IC50 [3]: 1300 nM
CC(C)(C)c1cc(NC(=O)Nc2ccc(-c3cccc4c3CNC4=O)cc2)n(-c2ccc3c(c2)CCN3)n1 [Example 191, 1-(3-t-butyl-1-(indolin-5-yl)-1H-pyrazol-5-yl)-3-(4-(1-oxoisoindolin-4-yl)phenyl)urea] | 21 | – | – | – | –
CC(C)(C)c1cc(NC(=O)Nc2cc(F)cc(C#N)c2)n(-c2ccc3c(c2)CCNC3)n1 [Example 152, 1-(3-t-butyl-1-(1,2,3,4-tetrahydroisoquinolin-6-yl)-1H-pyrazol-5-yl)-3-(3-cyano-5-fluorophenyl)urea hydrochloride] | – | – | – | – | IC50 (Abl kinase [1]): 570 nM
CC(C)(C)c1cc(NC(=O)Nc2cccc(-c3ccc(N)nc3)c2)n(-c2ccc3c(c2)CCC(=O)N3)n1 [Example 160, 1-(3-(6-aminopyridin-3-yl)phenyl)-3-(3-t-butyl-1-(2-oxo-1,2,3,4-tetrahydroquinolin-6-yl)-1H-pyrazol-5-yl)urea] | 14900 | – | – | – | –
CC(C)(C)c1cc(NC(=O)Nc2cccc(Oc3cccnc3)c2)n(-c2ccc3c(c2)CCNC3C(=O)NCC(O)CO)n1 (stereo not drawn) [Example 184, 1-(1-(1-((2,3-dihydroxypropyl)carbamoyl)-1,2,3,4-tetrahydroisoquinolin-6-yl)-3-t-butyl-1H-pyrazol-5-yl)-3-(3-(pyridin-3-yloxy)phenyl)urea] | 10 | – | – | – | –
CC(C)(C)c1cc(NC(=O)Nc2cc(F)c(F)cc2F)n(-c2ccc3c(c2)CCN3S(C)(=O)=O)n1 [Example 110, 1-(3-t-butyl-1-(1-(methylsulfonyl)indolin-5-yl)-1H-pyrazol-5-yl)-3-(2,4,5-tri-fluorophenyl)urea] | – | 360 | 140 | 3.4 | –
CC(C)(C)c1cc(NC(=O)Nc2cccc(Cl)c2Cl)n(-c2ccc3c(c2)CC(C(N)=O)NC3)n1 (stereo not drawn) [Example 188, 1-(3-t-butyl-1-(3-carbamoyl-1,2,3,4-tetrahydroisoquinolin-6-yl)-1H-pyrazol-5-yl)-3-(2,3-dichloro-phenyl)urea] | – | 110 | 150 | 5.8 | IC50 [3]: 17 nM
Cn1ccc2cc(-n3nc(C(C)(C)C)cc3NC(=O)Nc3cccc(Cl)c3Cl)ccc21 [Example 117, 1-(3-t-butyl-1-(1-methyl-1H-indol-5-yl)-1H-pyrazol-5-yl)-3-(2,3-dichlorophenyl)urea] | – | 230 | 58 | 3.2 | IC50 [3]: 59 nM
COc1cccc(-n2nc(C(C)(C)C)cc2NC(=O)Nc2ccc(Cl)cc2Cl)c1 [Example 233, 1-(3-t-butyl-1-(3-methoxyphenyl)-1H-pyrazol-5-yl)-3-(2,4-dichlorophenyl)urea] | – | – | 410 | 28 | IC50 [3]: 50 nM
CCOC(=O)Cc1cccc(-n2nc(C(C)(C)C)cc2NC(=O)Nc2cccc(Cl)c2Cl)c1 [Example 23, ethyl 2-(3-(3-t-butyl-5-(3-(2,3-dichlorophenyl)ureido)-1H-pyrazol-1-yl)phenyl)acetate] | – | 3800 | 1000 | 4.8 | IC50 [3]: 21 nM
CC(C)(C)c1cc(NC(=O)Nc2ccc(-c3cccc4c3CNC4=O)cc2)n(-c2ccc3c(c2)CC(C(N)=O)NC3)n1 (stereo not drawn) [Example 183, 1-(3-t-butyl-1-(3-carbamoyl-1,2,3,4-tetrahydroisoquinolin-6-yl)-1H-pyrazol-5-yl)-3-(4-(1-oxoisoindolin-4-yl)phenyl)urea] | 20 | – | – | – | –
O=C(Nc1cccc(Oc2cccnc2)c1)Nc1cc(C2CCCC2)nn1-c1ccc2[nH]c(=O)ccc2c1 [Example 164, 1-(3-cyclopentyl-1-(2-oxo-1,2-dihydroquinolin-6-yl)-1H-pyrazol-5-yl)-3-(3-(pyridin-3-yloxy)phenyl)urea] | 33 | – | – | – | –
COc1ccc(-n2nc(C(C)(C)C)cc2NC(=O)Nc2cccc(Cl)c2Cl)cc1 [Example 18, 1-[3-t-butyl-1-(4-methoxyphenyl)-1H-pyrazol-5-yl]-3-(2,3-dichlorophenyl)urea] | – | 830 | 240 | 458 | –
CC(C)(C)c1cc(NC(=O)Nc2cccc(-c3cccnc3)c2)n(-c2ccc3c(c2)CCC(=O)N3)n1 [Example 161, 1-(3-t-butyl-1-(2-oxo-1,2,3,4-tetrahydroquinolin-6-yl)-1H-pyrazol-5-yl)-3-(3-(pyridin-3-yl)phenyl)urea] | – | – | – | – | inhibition at 1 µM (Abl kinase [1]; @ 1 μM, Method A2, read-out: Abl Data (percent inhibition)): 3%
CC(C)(C)c1cc(NC(=O)Nc2ccc(-c3cccc4c3CNC4=O)cc2)n(-c2ccc3c(c2)CC(C(=O)O)NC3)n1 (stereo not drawn) [Example 181, 6-(3-t-butyl-5-(3-(4-(1-oxoisoindolin-4-yl)phenyl)ureido)-1H-pyrazol-1-yl)-1,2,3,4-tetrahydroisoquinoline-3-carboxylic acid] | 6.6 | – | – | – | –
CC(C)(C)c1cc(NC(=O)Nc2cccc(Oc3cccnc3)c2)n(-c2ccc3c(c2)CC(C(=O)NCC(O)CO)NC3)n1 (stereo not drawn) [Example 182, 1-(1-(3-((2,3-dihydroxypropyl)carbamoyl)-1,2,3,4-tetrahydroisoquinolin-6-yl)-3-t-butyl-1H-pyrazol-5-yl)-3-(3-(pyridin-3-yloxy)phenyl)urea] | 3.4 | – | – | – | –
